Measurements reported in PMC6277767, “Broad and Region-Specific Impacts of the Synthetic Cannabinoid CP 55,940 in Adolescent and Adult Female Mouse Brains” (Frontiers in Molecular Neuroscience, 2018).

Test system: CD1 female mouse brain lipidome
Assay: Brain-region lipid levels (HPLC/MS/MS lipidomics) 2 h after single i.p. 3 mg/kg CP 55,940 vs vehicle
Assay type: in vivo
Protocol: The Bloomington Institutional Animal Care and Use Committee of Indiana University reviewed and approved the animal procedures. Female mice from the CD1 strain were utilized to match our study examining THC’s effects on the brain lipidome ([Leishman et al., 2018]). Mice were given a single i.p. injection of either 3 mg/kg CP or 1:1:18 cremophor:ethanol:saline vehicle (please refer to the section “3 mg/kg CP Is Relevant for Synthetic Cannabinoid Abuse and Has Stronger Effects on the Female Mouse Brain Lipidome During Adolescence” for a justification of dose and use of female mice). Three different age groups were given injections: PND 35 and PND 50 adolescents, and adult mice (PND 113). At least eight mice in each age group received CP and at least eight received vehicle. Matching the THC study time course ([Leishman et al., 2018]), mice were sacrificed via rapid decapitation 2 h after injection. Brains were immediately removed and flash-frozen in liquid nitrogen, and then stored at -80°C until dissections were performed. Brains were dissected on an ice-cold dissection plate into the following regions: STR, HIPP, CER, THAL, CTX, HYP, MID, and STEM. These abbreviations for these brain areas will be used exclusively when discussing the results generated by these specific dissections. Each dissected area was immediately placed in liquid nitrogen and then stored at -80°C until used for lipid extraction.
Tissue extracts were performed as previously described ([Bradshaw et al., 2006]; [Stuart et al., 2013]; [Raboune et al., 2014]; [Leishman et al., 2016a],[b], [2017], [2018]). First, samples were shock frozen in liquid nitrogen, weighed, and transferred to a centrifuge tube. The mass of the largest sample was multiplied by 50 to determine how many milliliters of HPLC-grade methanol (Fisher, Fair Lawn, NJ, United States) to add. Then, samples were spiked with 500 pmol deuterium-labeled NAGly (d8NAGly; Cayman Chemical, Ann Arbor, MI, United States). Samples were placed on ice in darkness for 2 h then individually homogenized and centrifuged at 19,000 × g for 20 min at 20°C. Supernatants were diluted with HPLC water (purified in house) to make a solution of 75% water, 25% supernatant. Lipids were partially purified on C18 solid phase extraction columns (Agilent, Palo Alto, CA, United States). A series of four elutions with 1.5 mL of 60%, 75%, 85%, and 100% methanol were collected ([Stuart et al., 2013]; [Leishman et al., 2016a],[b], [2018]).
As previously described ([Bradshaw et al., 2006]; [Tan et al., 2006]; [Smoum et al., 2010]; [Stuart et al., 2013]; [Tortoriello et al., 2013]; [Raboune et al., 2014]; [Leishman et al., 2016a],[b], [2017], [2018]), samples were analyzed using an Applied Biosystems API 3000 triple quadrupole mass spectrometer with electrospray ionization (Foster City, CA, United States). Using an Agilent XDB-C18 reversed phase analytical column and optimized mobile phase gradients, 20 μL from each elution were chromatographed. Two Shimadzu 10ADvp pumps (Columbia, MD, United States) provided the pressure for gradient elution. Mobile phase A: 20% methanol, 80% water (v/v) and 1 mM ammonium acetate (Sigma, St. Louis, MO, United States). Mobile phase B: 100% methanol, 1 mM ammonium acetate. Every method run began with 0% mobile phase B, reached 100% mobile phase B flowing at 0.2 mL/min, and gradually returned to 0% mobile phase B.
This screening library will be referred to as the lipidome when discussing data from this study. HPLC/MS/MS data were analyzed using Analyst software (Applied Biosystems) ([Bradshaw et al., 2006]; [Tan et al., 2006]; [Stuart et al., 2013]; [Tortoriello et al., 2013]; [Raboune et al., 2014]; [Leishman et al., 2016a],[b], [2017], [2018]). Chromatograms (Supplementary Figure 3) were generated by determining the retention time of analytes from the analytical column with a [M-1] or [M+1] parent peak and a fragmentation peak corresponding to the programmed values. […]

CCCCCCC(C)(C)c1ccc([C@@H]2C[C@H](O)CC[C@H]2CCCO)c(O)c1 [CP 55,940]
total changes in lipid levels across the eight regions (PND 35): 231
changes in lipid levels that were decreases (PND 35, eight regions): 152
2-arachidonoyl glycerol level vs vehicle (PND 35 CER): ↓ (1-1.49 times lower than vehicle)
2-linoleoyl glycerol level vs vehicle (PND 35 CER): ↓ (1-1.49 times lower than vehicle)
6-ketoPGF1α level vs vehicle (PND 35 CER): ↓↓ (1.50-1.99 times lower than vehicle)
Arachidonic acid level vs vehicle (PND 35 CER): ↓ (1-1.49 times lower than vehicle)
N-arachidonoyl GABA level vs vehicle (PND 35 CER): ↓ (1-1.49 times lower than vehicle)
N-arachidonoyl alanine level vs vehicle (PND 35 CER): ↓ (1-1.49 times lower than vehicle)
N-arachidonoyl glycine level vs vehicle (PND 35 CER): ↓ (1-1.49 times lower than vehicle)
N-arachidonoyl methionine level vs vehicle (PND 35 CER): ↓↓ (1.50-1.99 times lower than vehicle)
N-arachidonoyl serine level vs vehicle (PND 35 CER): ↓ (1-1.49 times lower than vehicle)
N-arachidonoyl taurine level vs vehicle (PND 35 CER): ↓ (1-1.49 times lower than vehicle)
N-arachidonoyl tyrosine level vs vehicle (PND 35 CER): ↓ (1-1.49 times lower than vehicle)
N-docosahexaenoyl GABA level vs vehicle (PND 35 CER): ↓ (1-1.49 times lower than vehicle)
N-docosahexaenoyl alanine level vs vehicle (PND 35 CER): ↓ (1-1.49 times lower than vehicle)
N-docosahexaenoyl glycine level vs vehicle (PND 35 CER): ↓ (1-1.49 times lower than vehicle)
N-docosahexaenoyl leucine level vs vehicle (PND 35 CER): ↑ (1-1.49 times higher than vehicle)
N-docosahexaenoyl serine level vs vehicle (PND 35 CER): ↓ (1-1.49 times lower than vehicle)
N-docosahexaenoyl tyrosine level vs vehicle (PND 35 CER): ↓ (1-1.49 times lower than vehicle)
N-linoleoyl glycine level vs vehicle (PND 35 CER): ↓ (1-1.49 times lower than vehicle)
N-linoleoyl leucine level vs vehicle (PND 35 CER): ↑ (1-1.49 times higher than vehicle)
N-linoleoyl phenylalanine level vs vehicle (PND 35 CER): ↑ (1-1.49 times higher than vehicle)
N-oleoyl GABA level vs vehicle (PND 35 CER): ↓ (1-1.49 times lower than vehicle)
N-oleoyl ethanolamine level vs vehicle (PND 35 CER): ↓ (1-1.49 times lower than vehicle)
N-oleoyl leucine level vs vehicle (PND 35 CER): ↑ (1-1.49 times higher than vehicle)
N-oleoyl phenylalanine level vs vehicle (PND 35 CER): ↑ (1-1.49 times higher than vehicle)
N-palmitoyl leucine level vs vehicle (PND 35 CER): ↑↑ (1.50-1.99 times higher than vehicle)
N-palmitoyl phenylalanine level vs vehicle (PND 35 CER): ↑ (1-1.49 times higher than vehicle)
N-palmitoyl proline level vs vehicle (PND 35 CER): ↓ (1-1.49 times lower than vehicle)
N-palmitoyl serine level vs vehicle (PND 35 CER): ↓ (1-1.49 times lower than vehicle)
N-palmitoyl tyrosine level vs vehicle (PND 35 CER): ↑ (1-1.49 times higher than vehicle)
N-palmitoyl valine level vs vehicle (PND 35 CER): ↑↑ (1.50-1.99 times higher than vehicle)
2-palmitoyl glycerol level vs vehicle (PND 35 CTX): ↑↑ (1.50-1.99 times higher than vehicle)
6-ketoPGF1α level vs vehicle (PND 35 CTX): ↓ (1-1.49 times lower than vehicle)
N- stearoyl valine level vs vehicle (PND 35 CTX): ↑ (1-1.49 times higher than vehicle)
N-arachidonoyl GABA level vs vehicle (PND 35 CTX): ↓ (1-1.49 times lower than vehicle)
N-arachidonoyl alanine level vs vehicle (PND 35 CTX): ↓ (1-1.49 times lower than vehicle)
N-arachidonoyl glycine level vs vehicle (PND 35 CTX): ↓ (1-1.49 times lower than vehicle)
N-arachidonoyl methionine level vs vehicle (PND 35 CTX): ↓↓ (1.50-1.99 times lower than vehicle)
N-arachidonoyl phenylalanine level vs vehicle (PND 35 CTX): ↓ (1-1.49 times lower than vehicle)
N-arachidonoyl serine level vs vehicle (PND 35 CTX): ↓ (1-1.49 times lower than vehicle)
N-arachidonoyl taurine level vs vehicle (PND 35 CTX): ↓ (1-1.49 times lower than vehicle)
N-arachidonoyl tyrosine level vs vehicle (PND 35 CTX): ↓ (1-1.49 times lower than vehicle)
N-docosahexaenoyl GABA level vs vehicle (PND 35 CTX): ↓ (1-1.49 times lower than vehicle)
N-docosahexaenoyl glycine level vs vehicle (PND 35 CTX): ↓ (1-1.49 times lower than vehicle)
N-docosahexaenoyl leucine level vs vehicle (PND 35 CTX): ↑↑ (1.50-1.99 times higher than vehicle)
N-docosahexaenoyl serine level vs vehicle (PND 35 CTX): ↓↓ (1.50-1.99 times lower than vehicle)
N-docosahexaenoyl valine level vs vehicle (PND 35 CTX): ↑ (1-1.49 times higher than vehicle)
N-linoleoyl GABA level vs vehicle (PND 35 CTX): ↓ (1-1.49 times lower than vehicle)
N-linoleoyl glycine level vs vehicle (PND 35 CTX): ↓ (1-1.49 times lower than vehicle)
N-oleoyl GABA level vs vehicle (PND 35 CTX): ↓ (1-1.49 times lower than vehicle)
